ChEMBL document CHEMBL4414675, “Cytotoxic 20,22-Dihydrodigitoxigenin Glycosides and Other Constituents of Vallaris glabra Stems” (J Nat Prod, 2019)

Assays:
A549 = test: Cytotoxicity against human A549 cells assessed as reduction in cell viability by MTT assay; type: functional, cell-based
KB = test: Cytotoxicity against human KB cells assessed as reduction in cell viability by MTT assay; type: functional, cell-based
HT-29 = test: Cytotoxicity against human HT-29 cells assessed as reduction in cell viability by MTT assay; type: functional, cell-based
Vero = test: Cytotoxicity against African green monkey Vero cells assessed as reduction in cell viability by MTT assay; type: cell-based; settings: Chlorocebus sabaeus
HeLa = test: Cytotoxicity against human HeLa cells assessed as reduction in cell viability by MTT assay; type: functional, cell-based

SMILES	IC50 (A549)	IC50 (KB)	IC50 (HT-29)	IC50 (Vero)	IC50 (HeLa)
C[C@H]1[C@H](C)CC[C@]2(C(=O)O)CC[C@]3(COC(=O)/C=C/c4ccc(O)cc4)C(=CC[C@@H]4[C@@]5(C)CC[C@H](O)C(C)(C)[C@@H]5CC[C@]43C)[C@H]12	2200 nM	–	–	–	–
CO[C@H]1[C@@H](O)[C@H](O[C@H]2CC[C@@]3(C)[C@H](CC[C@@H]4[C@@H]3CC[C@]3(C)[C@@H](C5=CC(=O)OC5)[C@@H](O)C[C@]43O)C2)O[C@@H](C)[C@@H]1O[C@@H]1O[C@H](CO[C@@H]2O[C@H](CO)[C@@H](O)[C@H](O)[C@H]2O)[C@@H](O)[C@H](O)[C@H]1O	–	> 10000 nM	> 10000 nM	> 10000 nM	> 10 µM
CO[C@H]1[C@@H](O)[C@H](O[C@H]2CC[C@@]3(C)[C@H](CC[C@@H]4[C@@H]3CC[C@]3(C)[C@@H]([C@H]5COC(=O)C5)CC[C@]43O)C2)O[C@@H](C)[C@@H]1O[C@@H]1O[C@H](CO[C@@H]2O[C@H](CO)[C@@H](O)[C@H](O)[C@H]2O)[C@@H](O)[C@H](O)[C@H]1O	–	> 10000 nM	> 10000 nM	> 10000 nM	> 10 µM
CO[C@@H]1[C@@H](O[C@@H]2O[C@H](CO[C@@H]3O[C@H](CO)[C@@H](O)[C@H](O)[C@H]3O)[C@@H](O)[C@H](O)[C@H]2O)[C@H](C)O[C@@H](O[C@H]2CC[C@@]3(C)[C@H](CC[C@@H]4[C@@H]3CC[C@]3(C)[C@@H]([C@H]5COC(=O)C5)CC[C@]43O)C2)[C@@H]1OC(C)=O	–	> 10000 nM	> 10000 nM	> 10000 nM	> 10 µM
CO[C@H]1[C@@H](O)[C@H](C)O[C@@H](O[C@H]2CC[C@@]3(C)[C@H](CC[C@@H]4[C@@H]3CC[C@]3(C)[C@@H](C5=CC(=O)OC5)[C@@H](O)C[C@]43O)C2)[C@@H]1O	–	500 nM	300 nM	20 nM	6.2 µM
CO[C@H]1[C@@H](O)[C@H](O[C@H]2CC[C@@]3(C)[C@H](CC[C@@H]4[C@@H]3CC[C@]3(C)[C@@H]([C@H]5COC(=O)C5)CC[C@]43O)C2)O[C@@H](C)[C@@H]1O[C@@H]1O[C@H](CO)[C@@H](O)[C@H](O)[C@H]1O	–	6600 nM	> 10000 nM	> 10000 nM	6.2 µM
CO[C@@H]1[C@@H](O)[C@H](C)O[C@@H](O[C@H]2CC[C@@]3(C)[C@H](CC[C@@H]4[C@@H]3CC[C@]3(C)[C@@H](C5=CC(=O)OC5)[C@@H](O)C[C@]43O)C2)[C@@H]1O	–	1700 nM	200 nM	1300 nM	0.08 µM
CO[C@H]1[C@@H](O)[C@H](C)O[C@@H](O[C@H]2CC[C@@]3(C)[C@H](CC[C@@H]4[C@@H]3CC[C@]3(C)[C@@H]([C@H]5COC(=O)C5)CC[C@]43O)C2)[C@@H]1O	–	1900 nM	4100 nM	9200 nM	9.3 µM
CO[C@@H]1[C@@H](O)[C@H](O[C@H]2CC[C@@]3(C)[C@H](CC[C@@H]4[C@@H]3CC[C@]3(C)[C@@H]([C@H]5COC(=O)C5)CC[C@]43O)C2)O[C@@H](C)[C@@H]1O[C@@H]1O[C@H](CO)[C@@H](O)[C@H](O)[C@H]1O	–	1700 nM	7100 nM	500 nM	1.1 µM
C[C@H]1[C@H](C)CC[C@]2(C(=O)O)CC[C@]3(COC(=O)/C=C\c4ccc(O)cc4)C(=CC[C@@H]4[C@@]5(C)CC[C@H](O)C(C)(C)[C@@H]5CC[C@]43C)[C@H]12	–	–	–	–	6.1 µM
CO[C@@H]1[C@@H](O)[C@H](O[C@H]2CC[C@@]3(C)[C@H](CC[C@@H]4[C@@H]3CC[C@]3(C)[C@@H](C5=CC(=O)OC5)[C@@H](O)C[C@]43O)C2)O[C@@H](C)[C@@H]1O[C@@H]1O[C@H](CO[C@@H]2O[C@H](CO)[C@@H](O)[C@H](O)[C@H]2O)[C@@H](O)[C@H](O)[C@H]1O	–	> 10000 nM	> 10000 nM	> 10000 nM	> 10 µM
CC1(C)CC[C@]2(C(=O)O)CC[C@]3(COC(=O)/C=C\c4ccc(O)cc4)C(=CC[C@@H]4[C@@]5(C)CC[C@H](O)C(C)(C)[C@@H]5CC[C@]43C)[C@@H]2C1	–	–	600 nM	–	–
CO[C@@H]1[C@@H](O)[C@H](C)O[C@@H](O[C@H]2CC[C@@]3(C)[C@H](CC[C@@H]4[C@@H]3CC[C@]3(C)[C@@H]([C@H]5COC(=O)C5)CC[C@]43O)C2)[C@@H]1O	–	30 nM	200 nM	600 nM	0.5 µM
COc1cccc2c1C(=O)c1c(O)c3c(c(O)c1C2=O)C[C@@](O)(C(=O)CO)C[C@@H]3O[C@H]1C[C@H](N)[C@H](O)[C@H](C)O1 [DOXORUBICIN]	–	200 nM	900 nM	1300 nM	0.14 µM
